Values after ≈ are worked out from the molar mass of the structure shown.
What was measured:
Format in all cases: functional
Acinetobacter baumannii [1] = assay: Synergistic antimicrobial activity against Acinetobacter baumannii ATCC 19606 assessed as fractional inhibitory concentration index in presence of polymyxin E incubated for 18 to 20 hrs by chequerboard assay; conditions: time 18-20 hrs
Enterococcus faecalis = assay: Antimicrobial activity against vancomycin-resistant Enterococcus faecalis ATCC 51299 assessed as minimum inhibitory concentration incubated for 18 hrs by broth microdilution method
Acinetobacter baumannii [2] = assay: Antimicrobial activity against Acinetobacter baumannii ATCC 19606 incubated for 18 hrs by broth microdilution method
Staphylococcus aureus = assay: Antimicrobial activity against methicillin/ofloxacin-resistant Staphylococcus aureus ATCC 43300 assessed as minimum inhibitory concentration incubated for 18 hrs by broth microdilution method
Bacillus subtilis = assay: Antimicrobial activity against Bacillus subtilis ATCC 20678 incubated for 18 hrs by broth microdilution method

| SMILES | fractional inhibitory concentration index (FICI) (Acinetobacter baumannii [1]) | MIC (Enterococcus faecalis) | MIC (Acinetobacter baumannii [2]) | MIC (Staphylococcus aureus) | MIC (Bacillus subtilis) |
| --- | --- | --- | --- | --- | --- |
| Fc1cc(Nc2nc(-c3ccncc3)cs2)cc(C(F)(F)F)c1 | 1.031 | 256 µg/mL (≈ 754 µM) | 128 µg/mL (≈ 377 µM) | 64 µg/mL (≈ 189 µM) | 256 µg/mL (≈ 754 µM) |
| C/C(=N\NC1=NCCN1)c1csc(Nc2cc(F)cc(C(F)(F)F)c2)n1 | 0.75 | 16 µg/mL (≈ 41.4 µM) | > 256 µg/mL | 16 µg/mL (≈ 41.4 µM) | 8 µg/mL (≈ 20.7 µM) |
| C/C(=N\NC(=N)N)c1csc(Nc2cc(F)cc(C(F)(F)F)c2)n1 | 0.75 | 8 µg/mL (≈ 22.2 µM) | > 256 µg/mL | 8 µg/mL (≈ 22.2 µM) | 4 µg/mL (≈ 11.1 µM) |
| C/C(=N\Nc1ncccc1Cl)c1csc(Nc2cc(F)cc(C(F)(F)F)c2)n1 | 0.094 | 4 µg/mL (≈ 9.31 µM) | 128 µg/mL (≈ 298 µM) | 2 µg/mL (≈ 4.65 µM) | 1 µg/mL (≈ 2.33 µM) |
| Oc1ccc(Nc2nc(-c3ccc(F)cc3F)cs2)cc1C(F)(F)F | 0.187 | 2 µg/mL (≈ 5.37 µM) | > 256 µg/mL | 4 µg/mL (≈ 10.7 µM) | 2 µg/mL (≈ 5.37 µM) |
| Fc1ccc(-c2csc(Nc3cc(C(F)(F)F)cc(C(F)(F)F)c3)n2)c(F)c1 | 0.094 | 4 µg/mL (≈ 9.43 µM) | > 256 µg/mL | 4 µg/mL (≈ 9.43 µM) | 4 µg/mL (≈ 9.43 µM) |
| CC(C)(C)c1csc(Nc2cc(F)cc(C(F)(F)F)c2)n1 | 0.156 | 8 µg/mL (≈ 25.1 µM) | > 256 µg/mL | 8 µg/mL (≈ 25.1 µM) | 4 µg/mL (≈ 12.6 µM) |
| C/C(=N\Nc1cnccn1)c1csc(Nc2cc(F)cc(C(F)(F)F)c2)n1 | 0.75 | 128 µg/mL (≈ 323 µM) | 128 µg/mL (≈ 323 µM) | 64 µg/mL (≈ 161 µM) | 256 µg/mL (≈ 646 µM) |
| C/C(=N\Nc1ccc(C(=O)O)cn1)c1csc(Nc2cc(F)cc(C(F)(F)F)c2)n1 | 1.031 | 128 µg/mL (≈ 291 µM) | > 256 µg/mL | 64 µg/mL (≈ 146 µM) | 64 µg/mL (≈ 146 µM) |
| Cc1ccc(C(F)(F)F)cc1Nc1nc(-c2ccc(F)cc2F)cs1 | 0.093 | 256 µg/mL (≈ 691 µM) | > 256 µg/mL | 256 µg/mL (≈ 691 µM) | 2 µg/mL (≈ 5.4 µM) |
| Fc1ccc(-c2csc(Nc3cccnc3)n2)c(F)c1 | 1.031 | 256 µg/mL (≈ 885 µM) | 128 µg/mL (≈ 442 µM) | 128 µg/mL (≈ 442 µM) | 256 µg/mL (≈ 885 µM) |
| Fc1cc(Nc2nc(-c3cccnc3)cs2)cc(C(F)(F)F)c1 | 1.031 | 256 µg/mL (≈ 754 µM) | 128 µg/mL (≈ 377 µM) | 64 µg/mL (≈ 189 µM) | 256 µg/mL (≈ 754 µM) |
| Fc1ccc(-c2csc(Nc3c(Cl)cc(C(F)(F)F)cc3Cl)n2)c(F)c1 | 1.031 | 256 µg/mL (≈ 602 µM) | > 256 µg/mL | 256 µg/mL (≈ 602 µM) | 256 µg/mL (≈ 602 µM) |
| Fc1cc(Nc2nc(C3CC3)cs2)cc(C(F)(F)F)c1 | 0.187 | 8 µg/mL (≈ 26.5 µM) | > 256 µg/mL | 32 µg/mL (≈ 106 µM) | 16 µg/mL (≈ 52.9 µM) |
| Fc1ccc(-c2csc(Nc3ccncc3)n2)c(F)c1 | 1.031 | 32 µg/mL (≈ 111 µM) | 128 µg/mL (≈ 442 µM) | 4 µg/mL (≈ 13.8 µM) | 4 µg/mL (≈ 13.8 µM) |
| C/C(=N\Nc1ccc(Cl)nn1)c1csc(Nc2cc(F)cc(C(F)(F)F)c2)n1 | 0.75 | 256 µg/mL (≈ 594 µM) | > 256 µg/mL | 64 µg/mL (≈ 149 µM) | 256 µg/mL (≈ 594 µM) |
| Cc1cc(C(F)(F)F)ccc1Nc1nc(-c2ccc(F)cc2F)cs1 | 0.094 | 256 µg/mL (≈ 691 µM) | > 256 µg/mL | 256 µg/mL (≈ 691 µM) | 4 µg/mL (≈ 10.8 µM) |
| Cn1cc(-c2csc(Nc3cc(F)cc(C(F)(F)F)c3)n2)cn1 | 0.281 | 256 µg/mL (≈ 748 µM) | > 256 µg/mL | 256 µg/mL (≈ 748 µM) | 256 µg/mL (≈ 748 µM) |
| Fc1ccc(-c2csc(Nc3ccc(C(F)(F)F)cc3F)n2)c(F)c1 | 1.031 | 256 µg/mL (≈ 684 µM) | > 256 µg/mL | 256 µg/mL (≈ 684 µM) | 256 µg/mL (≈ 684 µM) |
| Fc1ccc(-c2csc(Nc3ccccn3)n2)c(F)c1 | 1.031 | 256 µg/mL (≈ 885 µM) | 64 µg/mL (≈ 221 µM) | 256 µg/mL (≈ 885 µM) | 256 µg/mL (≈ 885 µM) |

| SMILES | fractional inhibitory concentration index (FICI) (Acinetobacter baumannii [1]) | MIC (Enterococcus faecalis) | MIC (Acinetobacter baumannii [2]) | MIC (Staphylococcus aureus) | MIC (Bacillus subtilis) |
| --- | --- | --- | --- | --- | --- |
| Fc1cc(Nc2nc(-c3ccccn3)cs2)cc(C(F)(F)F)c1 | 0.078 | 64 µg/mL (≈ 189 µM) | 64 µg/mL (≈ 189 µM) | 1 µg/mL (≈ 2.95 µM) | 0.5 µg/mL (≈ 1.47 µM) |
| COc1ccc(Nc2nc(-c3ccc(F)cc3F)cs2)cc1C(F)(F)F | 0.094 | 8 µg/mL (≈ 20.7 µM) | > 256 µg/mL | 8 µg/mL (≈ 20.7 µM) | 4 µg/mL (≈ 10.4 µM) |
| COc1cc(Nc2nc(-c3ccc(F)cc3F)cs2)cc(C(F)(F)F)c1 | 0.187 | 256 µg/mL (≈ 663 µM) | > 128 µg/mL | 256 µg/mL (≈ 663 µM) | 2 µg/mL (≈ 5.18 µM) |
| Fc1cc(Nc2nc(-c3cc4ccccc4o3)cs2)cc(C(F)(F)F)c1 | 0.187 | 2 µg/mL (≈ 5.29 µM) | > 256 µg/mL | 1 µg/mL (≈ 2.64 µM) | 2 µg/mL (≈ 5.29 µM) |
| Fc1ccc(-c2csc(Nc3ccc(C(F)(F)F)cc3Cl)n2)c(F)c1 | 1.031 | 256 µg/mL (≈ 655 µM) | > 256 µg/mL | 256 µg/mL (≈ 655 µM) | 256 µg/mL (≈ 655 µM) |
| Fc1ccc(-c2csc(Nc3ccccc3C(F)(F)F)n2)c(F)c1 | 0.156 | 4 µg/mL (≈ 11.2 µM) | > 256 µg/mL | 8 µg/mL (≈ 22.5 µM) | 8 µg/mL (≈ 22.5 µM) |
| Fc1cc(Nc2nc(-c3ccco3)cs2)cc(C(F)(F)F)c1 | 0.187 | 8 µg/mL (≈ 24.4 µM) | > 256 µg/mL | 8 µg/mL (≈ 24.4 µM) | 4 µg/mL (≈ 12.2 µM) |
| Oc1cc(Nc2nc(-c3ccc(F)cc3F)cs2)cc(C(F)(F)F)c1 | 0.25 | 256 µg/mL (≈ 688 µM) | > 256 µg/mL | 1 µg/mL (≈ 2.69 µM) | 0.5 µg/mL (≈ 1.34 µM) |
| Fc1cc(Nc2nc(C3CCOCC3)cs2)cc(C(F)(F)F)c1 | 1.031 | 128 µg/mL (≈ 370 µM) | > 256 µg/mL | 64 µg/mL (≈ 185 µM) | 64 µg/mL (≈ 185 µM) |
| Fc1cc(Nc2nc(-c3ccc(F)cc3F)cs2)cc(C(F)(F)F)c1 | 0.062 | 2 µg/mL (≈ 5.34 µM) | > 256 µg/mL | 2 µg/mL (≈ 5.34 µM) | 2 µg/mL (≈ 5.34 µM) |
| Fc1cc(Nc2nc(-c3cccs3)cs2)cc(C(F)(F)F)c1 | 0.187 | 8 µg/mL (≈ 23.2 µM) | > 256 µg/mL | 64 µg/mL (≈ 186 µM) | 4 µg/mL (≈ 11.6 µM) |
| COc1cc(Nc2nc(-c3ccc(F)cc3F)cs2)ccc1C(F)(F)F | 0.187 | 2 µg/mL (≈ 5.18 µM) | > 256 µg/mL | 2 µg/mL (≈ 5.18 µM) | 2 µg/mL (≈ 5.18 µM) |
| O=C(Nc1ccccn1)c1csc(Nc2cc(F)cc(C(F)(F)F)c2)n1 | 0.281 | 256 µg/mL (≈ 670 µM) | 64 µg/mL (≈ 167 µM) | 256 µg/mL (≈ 670 µM) | 256 µg/mL (≈ 670 µM) |
| CCOc1ccc(Nc2nc(-c3ccc(F)cc3F)cs2)cc1C(F)(F)F | 0.094 | 4 µg/mL (≈ 9.99 µM) | > 256 µg/mL | 8 µg/mL (≈ 20 µM) | 4 µg/mL (≈ 9.99 µM) |
| CS(=O)(=O)c1ccc(Nc2nc(-c3ccc(F)cc3F)cs2)cc1 | 1.031 | 256 µg/mL (≈ 699 µM) | > 256 µg/mL | 256 µg/mL (≈ 699 µM) | 256 µg/mL (≈ 699 µM) |
| C/C(=N\Nc1cc(O)ncn1)c1csc(Nc2cc(F)cc(C(F)(F)F)c2)n1 | 0.562 | 256 µg/mL (≈ 621 µM) | > 256 µg/mL | 128 µg/mL (≈ 310 µM) | 256 µg/mL (≈ 621 µM) |
| Fc1ccc(-c2csc(Nc3cc(Cl)cc(C(F)(F)F)c3)n2)c(F)c1 | 0.156 | 2 µg/mL (≈ 5.12 µM) | > 256 µg/mL | 4 µg/mL (≈ 10.2 µM) | 4 µg/mL (≈ 10.2 µM) |
| Fc1ccc(-c2csc(Nc3ccc(Cl)c(C(F)(F)F)c3)n2)c(F)c1 | 0.094 | 2 µg/mL (≈ 5.12 µM) | > 256 µg/mL | 1 µg/mL (≈ 2.56 µM) | 1 µg/mL (≈ 2.56 µM) |
| Fc1ccc(-c2csc(Nc3cccc(C(F)(F)F)c3)n2)c(F)c1 | 0.094 | 2 µg/mL (≈ 5.61 µM) | > 256 µg/mL | 4 µg/mL (≈ 11.2 µM) | 2 µg/mL (≈ 5.61 µM) |
| C/C(=N\Nc1ccccc1)c1csc(Nc2cc(F)cc(C(F)(F)F)c2)n1 | 0.375 | 16 µg/mL (≈ 40.6 µM) | 64 µg/mL (≈ 162 µM) | 16 µg/mL (≈ 40.6 µM) | 16 µg/mL (≈ 40.6 µM) |
